“Also recorded” adds a separate entry of the source. Where a name gives a salt, the structure may show the parent alone.
Test system: autophagy flux (LC3-II) in Huh7 cell line
Test: Autophagy flux, LC3-II immunoblot with/without Bafilomycin, Huh7 cell line
Assay type: cell-based
Details: 4 hours and 24 hours of treatment
Procedure: Since compound 2-3 induced an inhibition of the proteolytic activity of cathepsins B, D and/or L (see example 1) supporting an inhibition of some lysosomal functions which can affect the cellular autophagy flux, the capacity of compound 2-3 to modulate the cellular autophagy processes and functions was evaluated in two Hepatocellular carcinoma (HCC) cell lines: Huh7 and HepG2. For this purpose, the accumulation of LC3-II (Light Chain 3 phosphatidylethanolamine conjugate) in presence or absence of compound 2-3 was analyzed using immunoblot analysis of LC3-II.
The HepG2 cell line was maintained in DMEM low glucose (Cat #21885025, ThermoFischer) containing 1% penicillin-streptomycin (Cat #P06-07100, Dutscher) and 10% FBS (Cat #SV30160.03C, Dutscher). The Huh7 cell line was maintained in DMEM high glucose (Cat #L0103-500, Dutscher) containing 1% penicillin-streptomycin (Cat #P06-07100, Dutscher) and 10% SVF (Cat #SV30160.03C, Dutscher). Cells lines were cultured at 37° C. with 5% CO2.
The day before the experiment, 6-well plates with 250,000 cells for HepG2 and 310,000 cells for Huh7 in 1.8 mL of medium per well were prepared. […]
After 4 hours and 24 hours of cells treatment, the medium was removed from each well. […] Total protein concentration was assessed using the BCA reagent (Cat #23227, ThermoFischer) and cellular lysates were stored at −80° C. until western-blot analysis. […]

SMILES: CC(C)(C)NC1CCN(c2cc(NCc3ccc(Cl)cc3)nc3ccccc23)CC1 [2-3, 2-(4-chlorobenzylamino)-4-(4-tert-butylaminopiperidin-1-yl)-quinoline Hydrochloride Salt]
- accumulation of the LC3-II form: significantly induced, in a dose-dependent manner, an accumulation of the LC3-II form
- autophagy flux (LC3-II Baf+/Baf− ratio) (Hydrochloride Salt): inhibition; also recorded: inhibitor of the autophagy flux

Reference: patent publication US11261189B2, “Substituted 2,4 diamino-quinoline as new medicament for fibrosis, autophagy and cathepsins B (CTSB), L (CTSL) and D (CTSD) related diseases” (Genoscience Pharma, priority 2018, dated 2022)
